Data from ChEMBL document CHEMBL3526130, “An evaluation of using rat-derived single-dose neuropharmacokinetic parameters to project accurately large animal unbound brain drug concentrations” (Drug Metab Dispos, 2012).

Tests used:
Format in all cases: ADME, organism-based
[1] = AUC(0 to 7 hrs) in Sprague-Dawley rat plasma at 3 mg/kg, sc by LC-MS/MS analysis; design: time < 7 hr, dose 3 mg/kg, route subcutaneous
[2] = AUC(0 to infinity) in Sprague-Dawley rat plasma at 3 mg/kg, sc by LC-MS/MS analysis; design: time infinity, dose 3 mg/kg, route subcutaneous
[3] = AUC(0 to 7 hrs) in Sprague-Dawley rat cerebrospinal fluid at 3 mg/kg, sc by LC-MS/MS analysis; design: time < 7 hr, dose 3 mg/kg, route subcutaneous
[4] = AUC(0 to infinity) in Sprague-Dawley rat cerebrospinal fluid at 3 mg/kg, sc by LC-MS/MS analysis; design: dose 3 mg/kg, route subcutaneous, time infinity
[5] = Ratio of drug level in brain to plasma in Sprague-Dawley rat at 3 mg/kg, sc by LC-MS/MS analysis; design: dose 3 mg/kg, route subcutaneous; settings: read-out: BPR
Nucleic Acid = test: Ratio of drug level in cerebrospinal fluid to unbound plasma concentration in Sprague-Dawley rat at 3 mg/kg, sc by LC-MS/MS analysis; design: dose 3 mg/kg, route subcutaneous; settings: in vivo
[6] = Ratio of unbound brain concentration to drug level in cerebrospinal fluid in Sprague-Dawley rat at 3 mg/kg, sc by LC-MS/MS analysis; design: dose 3 mg/kg, route subcutaneous; settings: in vivo
[7] = Ratio of unbound drug level in brain to plasma in Sprague-Dawley rat at 3 mg/kg, sc by LC-MS/MS analysis; design: dose 3 mg/kg, route subcutaneous
[8] = AUC(0 to 7 hrs) in Sprague-Dawley rat brain at 3 mg/kg, sc by LC-MS/MS analysis; design: time < 7 hr, dose 3 mg/kg, route subcutaneous
[9] = AUC(0 to infinity) in Sprague-Dawley rat brain at 3 mg/kg, sc by LC-MS/MS analysis; design: dose 3 mg/kg, route subcutaneous, time infinity

Structure (SMILES): Nc1nc(O)c2ncn(COC(CO)CO)c2n1 [GANCICLOVIR]
- AUC(0-t) at 7 h [1]: 1700 ng·h/mL
- AUC(0-inf) [2]: 1720 ng·h/mL
- AUC(0-t) at 7 h [3]: 78.4 ng·h/mL
- AUC(0-inf) [4]: 82.5 ng·h/mL
- Kp [5]: 0.1
- Ratio (Nucleic Acid): 0.05
- Ratio [6]: 1.85
- Kp uu [7]: 0.09
- AUC(0-t) at 7 h [8]: 170 ng·h/mL
- AUC(0-inf) [9]: 182 ng·h/mL

Structure (SMILES): CCN(CC)CCNC(=O)c1cc(Cl)c(N)cc1OC [METOCLOPRAMIDE]
- AUC(0-t) at 7 h [1]: 365 ng·h/mL
- AUC(0-inf) [2]: 367 ng·h/mL
- AUC(0-t) at 7 h [3]: 418 ng·h/mL
- AUC(0-inf) [4]: 420 ng·h/mL
- Kp [5]: 1.72
- Ratio (Nucleic Acid): 1.8
- Ratio [6]: 0.5
- Kp uu [7]: 0.89
- AUC(0-t) at 7 h [8]: 629 ng·h/mL
- AUC(0-inf) [9]: 635 ng·h/mL

Structure (SMILES): NC(=O)N1c2ccccc2C=Cc2ccccc21 [CARBAMAZEPINE]
- AUC(0-t) at 7 h [1]: 2270 ng·h/mL
- AUC(0-inf) [2]: 2280 ng·h/mL
- AUC(0-t) at 7 h [3]: 456 ng·h/mL
- AUC(0-inf) [4]: 458 ng·h/mL
- Kp [5]: 1.12
- Ratio (Nucleic Acid): 0.9
- Ratio [6]: 0.5
- Kp uu [7]: 0.45
- AUC(0-t) at 7 h [8]: 2540 ng·h/mL
- AUC(0-inf) [9]: 2550 ng·h/mL
